# Test system: primary spinal cord lower motor neurons (MNs) from SOD1 G93A Tg rats
# Assay: Cellular model of Amyotrophic Lateral Sclerosis (glutamate injury)
# Assay type: cell-based, rat
# Procedure: Compounds 157 (particularly) preferred), 185 and 196 were selected example compounds if this invention to evaluate in this model. This model (run by Neuro-Sys SAS, France) evaluates the protective effects of test compounds on primary spinal cord lower motor neurons (MNs) from SOD1 G93A Tg rats, after a glutamate injury. The MNs are pre-treated with the test compounds for 1 hour prior to exposure to glutamate, and readouts are measured 24 hours later. This model functions as an in vitro model of Amyotrophic Lateral Sclerosis. […] Any substances which can attenuate one or more of these effects can be considered to have protective effects in the model and may be useful as a new therapeutic agent for the treatment or prevention of ALS.
# Genotyping of SOD1 Tg embryos: Pregnant female rat SODIG93A (Sprague Dawley, Taconic), of 14 days of gestation were obtained fromTaconic Bioscience. On the day of the dissection (from pregnant females at 14 days of gestation), a piece of each embryo brain (˜3 mm) was placed in a 2 mL tube free DNase with a new scalpel. The DNA was extracted with the SYBR Green Extract-N-Amp tissue PCR kit (Sigma Aldrich). Briefly, 120 μL of extraction solution was put on each piece of embryo heads. Then, they were incubated for 10 min at room temperature. At the end of this incubation period, the heads were incubated for 5 min at 95° C. Immediately after this last incubation, 100 μL of neutralizing solution was added; each DNA extract was diluted at 1/40 and stored at +4° C. until use. SOD1G93A gene was determined using genomic fragment with human SOD1 primers (5′-[…]-3′ (SEQ ID NO: 1); 5′-[…]-3′ (SEQ ID NO: 2)). The SOD1 primers were diluted at 3 μM in sterile ultrapure water. Briefly, a mix for PCR was prepared with ultrapure water (4 μL per sample), primer at 3 μM (2 μL per sample) and Master Mix (10 μL per sample). In a PCR 96 wells plate, 16 μL of PCR mix was added in each well. 4 μL of each diluted DNA was added according to a plan deposit. The RT-PCR was ran using the CFX96 Biorad RT-PCR system, using the following program: Initial denaturation (95° C., 20 sec)/45 cycles (95° C., 10 sec; 65° C., 10 sec; 72° C., 30 sec)/Melt curve (95° C., 15 sec; 64° C., 1 min; 90° C., 30 sec; 60° C. 15 sec). The amplification plots and melt curves were analyzed with the Biorad software. The results for each sample were compared to negative control (ultrapure water) and to the positive control (DNA from Tg embryos).
# Rat spinal cord motor neurons (MNs) were be cultured as described by Wang et al. 2013 and Boussicault et al., 2020. Briefly, pregnant female rats of 14 days gestation (Sprague Dawley; Taconic) were killed using a deep anesthesia with CO2 chamber and a cervical dislocation. Then, fetuses were removed from the uterus and immediately placed in ice-cold L15 Leibovitz medium with a 2% penicillin (10,000 U/ml) and streptomycin (10 mg/ml) solution (PS) and 1% bovine serum albumin (BSA).
# Spinal cords were treated for 20 min at 37° C. with a trypsin-EDTA solution at a final concentration of 0.05% trypsin and 0.02% EDTA. The dissociation was stopped by addition of Dulbecco's modified Eagle's medium (DMEM) with 4.5 g/liter of glucose, containing DNAse I grade II (final concentration 0.5 mg/mL) and 10% fetal calf serum (FCS). Cells were mechanically dissociated by three forced passages through the tip of a 10-ml pipette. Cells were then centrifuged at 515×g for 10 min at 4° C. The supernatant was discarded, and the pellet was resuspended in a defined culture medium consisting of Neurobasal medium with a 2% solution of B27 supplement, 2 mmol/liter of L-glutamine, 2% of PS solution, and 10 ng/ml of brain-derived neurotrophic factor (BDNF). Viable cells were counted in a Neubauer cytometer, using the trypan blue exclusion test. The cells were seeded at a density of 20,000 per well in 96-well plates precoated with poly-L-lysine and will be cultured at 37° C. in an air (95%)—CO2 (5%) incubator. […]
smiles,measurement,setting,value
"CCN1CCC(N(C)C(=O)c2csc(-c3cnn(-c4ccccc4)c3)n2)CC1 [Compound 196, N-(1-ethylpiperidin-4-yl)-N-methyl-2-(1-phenyl-1H-pyrazol-4-yl)-1,3-thiazole-4-carboxamide]",effects in the in vitro model of ALS,,positive effects
same,abnormal TDP43 accumulation in the cytoplasm resulting from glutamate injury,"0.5 μM, 1 μM and 10 μM",fully abolished
same,increase in neurite network length,"10 μM, compared to glutamate injury alone",16%
same,increase in number of motor neurons,"1 and 10 μM, compared to glutamate injury alone",> 10%

# — patent US20250034127A1, “AUTOPHAGY INDUCING COMPOUNDS AND USES THEREOF, IN PARTICULAR FOR DISEASES OF THE CNS” (Samsara Therapeutics Inc., priority 2021, published 2025)
